Test results taken from US20240309015A1, “Methods for the Treatment of Fibrotic Disease” (SHY Therapeutics, LLC, priority 2021, published 2024).

Key:
Smad2/3 phosphorylation = assay: Phospho-Smad2/3 Inhibition Assay in PANC-1; assay type: cell-based; details: Homo sapiens, western blot
Procedure, shortened: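 Serum-starved cells (0.5% FBS overnight) pretreated 3 h at 37 °C with compound at 10 μM or serial dilutions for IC50, in 0.3% DMSO. TGF-b1 10 ng/ml stimulation: 1 h for Panc-1 (human), 20 min for C2C12 (mouse). Phospho-Smad2 (Ser465/467) and phospho-Smad3 (Ser423/425) measured by western blot of lysates.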

MAPK p38 = MAPK p38 Activation Assay in PANC-1; assay type: cell-based, human; design: key: Y = yes; N = No; details: at 10 μM
Method: Cell lines: Human tumor-derived pancreatic cancer cell line Panc-1 and mouse muscle myoblast C2C12 were purchased from American Type Culture Collection and grown in complete DMEM-High Glucose, supplemented with penicillin (100 U/mL), streptomycin (100 μg/mL), and 10% heat-inactivated FBS at 37° C. in a humidified incubator with 5% C02.
Method: Cells were plated at 350000 cells/well density in a 12-well plate, allowed 3 hours to adhere to the plate, then starved in the appropriate medium in the presence of 0.5% FBS overnight. The small molecules to be tested were added to the cells in the final concentration of 10 μM in the presence of 0.3% DMSO for 3 hours incubation at 37° C. For IC50 value determination, serial dilutions of compounds were added to cells under the same conditions. […] Protein concentration was assessed by BCA protein assay (Thermo Scientific). Phosphorylation level of MAPK p38 was determined by western blot.
Western blot protocol: Equal amounts of protein (15-50 μg) were separated by SDS-PAGE and transferred to nitrocellulose membranes (Invitrogen by Thermo Fisher Scientific). […] Membranes were blocked with 10% milk and phosphorylation levels of Smad2/Smad3 were assessed by incubating overnight at 4° C. with the following antibody: Phospho-p38 MAPK (Thr180/Tyr182), from Cell Signaling Technology. […]

KRas wild type = assay: Ras GTP Binding Domain Inhibition Assay, KRas wild type; details: at 20 μM
Procedure, shortened: (§1)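 His-tagged GTPases, 10-30 μg/mL in Tris-HCl buffer (pH 7.4 or 7.0, MgCl2, DTT), were immobilised on nickel-coated wells overnight at 4° C. Compounds were added at 20 μM or as serial dilutions for IC50 in 1% DMSO for 3 h at room temperature, ±Sos(556-1049) in the final hour. Bound Cy3/Cy5-GTP (100 nM, 45 min) was read after washing.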

KRas G12C mutant = assay: Ras GTP Binding Domain Inhibition Assay, KRas G12C mutant; details: at 20 μM
Procedure, shortened: as §1

Structure (SMILES): CO[C@H]1CC[C@@H](Nc2nc(-c3nccn3C)nc3sc(-c4ccn(C)n4)c(-c4ccccc4)c23)C1 (racemic) [Compound 5, rac-N-((1R,3S)-3-Methoxycyclopentyl)-2-(1-methyl-1H-imidazol-2-yl)-6-(1-methyl-1H-pyrazol-3-yl)-5-phenylthieno[2,3-d]pyrimidin-4-amine]
- inhibition at 10 µM (Smad2/3 phosphorylation; 10 μM compound, 3 h, TGF-b1 stimulated PANC-1, read-out: % inh of Smad2/3 phosphorylation in PANC-1): 76 to 100%
- IC50 (Smad2/3 phosphorylation; PANC-1, TGF-b1 stimulated): 5 to 10 µM
- Activation of MAPK p38 in PANC-1 (MAPK p38): Y
- KRas wild type + SOS: % inh. (KRas wild type; with SOS): D (D = 76-100% inhibition)
- KRas wild type: % inh. (KRas wild type; without SOS): B (B = 26-45% inhibition)
- KRas G12C mutant + SOS: % inh. (KRas G12C mutant; with SOS): D (D = 76-100% inhibition)
- KRas G12C mutant: % inh. (KRas G12C mutant; without SOS): B (B = 26-45% inhibition)
